# Assay results reported in patent US20040038888A1 (priority 2002, published 2004).
# Legend:
# CREB phosphorylation = test: Western blot of phosphorylated CREB, adult mouse NSC, non-adherent; type: cell-based; conditions: 10 nM PACAP
# Experimental: Adult mouse NSC and aHNSC were prepared and cultured as stated in Example 2 (Method A) and Example 1 (Method A). Cultures were exposed to either 10 nM PACAP or EGF (1 nM) and FGF (1 nM) for the times indicated. After treatment, the cells were lysed in lysis buffer, as shown in Patrone et al. (Patrone, Andersson et al. 1999). DNA content was detemined by the use of a Pico Green-kit for ds DNA quantitation of cell extracts. Total protein measurements were performed with Nano Orange-kit. Equal amounts of protein were run on a gradient gel 4-12% Bis-Tris gel (NuPage/Mops buffer) and transferred to a nitrocellulose membrane. Western blot was performed and phosphorylated CREB was labelled using a rabbit anti phospho-CREB (1:1000, Upstate biotechnology), a secondary anti rabbit HRP antibodies (1:10.000). Phosphorylated CREB protein bands (43 kD) were detected using the ECL-kit (Amersham).
# subventricular zone NSC = test: PACAP/BrdU infusion, BrdU labelling of the lateral ventricle wall; type: in vivo, mouse; conditions: 600 nM pump concentration, 0.5 μl/hr into the lateral ventricle, 3.5 days, relative to vehicle
# Experimental: 10 week old male mice (C57B1/2), maintained on a 12 hr light/dark cycle with food and water ad libidum, were infused in the right lateral ventricle with PACAP38 (Bachem), using a Alzet pump (1007D), for 3,5 days or 7 days at a daily dose of 31 ng/day (600 nM PACAP pump concentration infused at a rate of 0.5 μl/hr). Bromodeoxyuridine (BrdU) (50 mg/ml) was also included in the infusion vehicle (0.9% saline containing 1 mg/ml mouse serum albumin (Sigma)) to enable measurement of proliferation by quantitation of BrdU incorporation in the DNA. The group of infused with either PACAP/BrdU or vehicle/BrdU for 3,5 days and sacrificed at this time point. […]
# Brains were cut into 14-μm coronal sections using a cryostat-microtome. […] After 1 hour of washing, the BrdU-antibody complex was detected using 0.05% diaminobenzidine with 0.01% H2O2, and counterstained with Hematoxylin. […]
# For all BrdU labelling experiments, three to six sections per animal were analysed. […] The number of BrdU-labelled cells per area of dentate granule cell layer was counted manually. […] BrdU-positive cells were counted along 2×250 micrometer strips of the lateral ventricle wall (see FIG. 18). Area measurements of both the dentate granule cell layer and the “counted” region of the lateral ventricle wall (including the ependymal cell layer and subventricular zone) were made from each slide used for the cell counts. […]
# [1] = tested on: differentiating neural stem cells; test: Thymidine incorporation, differentiating adult mouse NSC, adherent culture; type: cell-based; conditions: adherent conditions, 3 days, relative to controls
# Experimental: To determine thymidine incorporation into DNA, mouse neurospheres, cultured as described above, from passage 2, were seeded in DMEM/F12 supplemented with B27 and 1% Fetal Calf Serum into a 96-well plate coated with poly-D-lysine as single cells (30000 cells/well) and cultured over-night. The following day the medium was replaced with Neurosphere medium and PACAP added to the concentrations indicated for a further 3 days. 3H-thymidine, 10 uCi/ml, was present the last 24 hours. Cells were harvested on to a filter paper and radioactivity was measured. 3H-thymidine (6,7 Ci/mmol) was from PerkinElmer.
# AP-1 = AP-1 transcription factor reporter assay; type: cell-based, mouse; conditions: PACAP 100 nM, 20 hours after induction, compared to non-induced cells
# Experimental: Vectors: Vector DNA containing reporter elements for AP-1 and empty cloning vector (pTAL), with a luciferace reporter were purchased from Promega. The vectors were propagated in E. coli strain JM-109 (Promega) and purified with Qiagens maxi-prep Kit (Qiagen). The concentration was diluted to approximately 1 mg/ml per vector.
# Transfection: Transient transfection was performed by seeding cells as above in suspension neurosphere cell culture and adherent neurosphere cell culture (1 to 3 day incubation) using 30,000 single cells/well. Each well was transiently transfected with […] plasmid, 0.6 μg Nupherin-neuron (Biomol) and 0,6 μl of Fugene-6 (Roche). Plasmid and Nupherin was mixed and diluted in DMEM/F12 to a total volume of 50 μl/well, and were incubated for 15 minutes prior to mixing with Fugene-6 that were diluted in DMEM/F12 to a total volume of 50 μl/well. The mix of plasmid and Nupherin and Fugene-6 were incubated for 20 min. The volume was adjusted to 100 μl prior to addition of 100 μl/well of transfection reagent.
# Assay: The following day the transiently transfected cells were applied with PACAP (Bachem) to final concentration of 100 nM/well, in the presence or absence of MEK inhibitor, […] (Sigma-Aldrich). Luciferace activity was analysed with steady glow (Promega) according to the instructions of the manufacturer. Cells were analysed 20 hours after induction with PACAP.
substance,measurement,setting,value
pituitary adenylate cyclase-activating polypeptide [PACAP],CREB phosphorylation,CREB phosphorylation; 15 min exposure,upregulated
same,CREB phosphorylation,CREB phosphorylation; 240 min,return to basal levels
same,proliferation in the subventricular zone of the lateral ventricle wall (BrdU-positive cells),subventricular zone NSC,significant increase in proliferation
same,incorporation of tritiated thymidine,[1],No significant difference
same,AP-1 expression (luciferace activity),AP-1,significantly induced
